From article PMC12308784, “Organometallic Half-Sandwich Complexes of 1,10-Phenanthroline Derivatives with Improved Solubility, Albumin-Binding, and Nanoformulation Potential Targeting Drug Resistance in Cancer” (Inorganic Chemistry, 2025) come the findings set out here.

Bounds are passed on as bounds.

Assay [1] relates to MDA-MB-231, MCF-7 and T-47D breast cancer cell lines. Description: PrestoBlue cytotoxicity, range over the three breast cancer lines. The format is cell-based. Conditions: MDA-MB-231, MCF-7, T-47D; 72 h. As for the experimental part: The PHEN-derived ligands (DCP, BP) (together with PHEN for comparison) and the isolated complexes ([RuCym(DCP)-Cl]-Cl, [RhCp*(DCP)-Cl]-Cl, [RuCym(BP)-Cl]-Cl, [RhCp*(BP)-Cl]-Cl) were tested against the estrogen receptor (ER) negative MDA-MB-231, and the ER positive MCF-7 and T-47D breast cancer cell lines (Table , and Figure a for easier comparison).
MDA-MB-231 breast adenocarcinoma and MCF-7 and T-47D invasive breast carcinomas were purchased from the Developmental Therapeutic Program of the National Cancer Institute (NIH, USA), and they were cultured in RPMI medium (Thermo Fisher). MES–SA and MES–SA/Dx5 uterine sarcoma cell lines were purchased from American Type Culture Collection and were kept in DMEM (Thermo Fisher). MES–SA/B1 was created by the transfection of the human MDR1 gene in MES–SA, and MES–SA mCherry, MES–SA/B1 mOrange, and MES–SA/Dx5 eGFP were engineered to stably express the respective fluorescent proteins, as described previously. Culture media were supplemented with 10% fetal bovine serum, 2 mM L-glutamine, 100 units/mL penicillin, and 100 μg/mL streptomycin (Thermo Fisher). Cells were kept at 37 °C under 5% CO2 and were negative for mycoplasma infection.
Cytotoxicity of the nonfluorescent cancer cells (MDA-MB-231, MCF-7, T-47D) were assessed with PrestoBlue cell viability reagent (Thermo Fisher). Briefly, 2500 cells/well were seeded on 384-well plates, and then the next day drugs were added. After 72 h incubation, PrestoBlue was added in a 10% final concentration, and after an hour of additional incubation, plates were measured with a PerkinElmer EnSpire plate reader at 555 nm/585 nm excitation/emission wavelengths. Fluorescent cells (MES-SA mCherry, MES-SA/B1 mOrange, MES-SA/Dx5 eGFP) were admixed before seeding on 384-well plates at 800 cells/well density each, thus altogether 2400 cells/well. Drugs were added the following day, and the intensity of the fluorescent proteins were measured after 144 h incubation at the respective fluorescent channels (excitation/emission: eGFP: 485 nm/510 nm; mCherry: 585 nm/610 nm; mOrange: 545 nm/567 nm). pIC50 values were calculated by a custom program written by Judit Sessler in C#. IC50 values and standard deviation were calculated from average pIC50 values from at least 3 independent measurements.

In assay [2] the target is T1, HSA Sudlow’s site II (IIIA subdomain) (Homo sapiens, UniProt P02768).
T1 construct: purchased Sigma-Aldrich A8763
Nature of the assay: dansylglycine (DG) site marker displacement on HSA. The format is binding. The conditions noted are these: HSA–DG 1:1; PBS’; t = 25 °C. As for the experimental part: To further explore the binding affinity and site specificity of the metal complexes, site marker displacement experiments were conducted using WF and DG, which bind to Sudlow’s site I (in IIA subdomain) and to Sudlow’s site II (in IIIA subdomain), respectively. The displacement of these fluorescence probes directly confirms the interactions of the metal complexes with the respective binding sites. The displacement constants of WF (KWF′) by the metal complexes (Figure c,d, Table ) were correlated with the Trp-214 quenching data.
Fluorescence measurements were carried out on a Fluoromax (Horiba Jobin Yvon) spectrofluorometer using a 1 cm × 1 cm quartz cuvette in order to assess the interactions of the complexes with HSA in PBS’ medium at 25 °C. The calculated quenching or displacement conditional constants for the HSA-complex species were obtained using the computer program HypSpec. Calculations always were based on data obtained from at least two independent measurements. Self-absorbance and inner filter effect had to be taken into account, and corrections were made as it was described in our former works. ,
Table S7. Conditions applied for steady -state spectrofluorometric measurements.
cHSA cMARKER ccomplex λEX λEM slit widths
(μM) (μM) (μM) (nm) (nm) EX/EM […]
S.; Deflon, V. M.; Ferreira, A. G.; Cominetti, M. R.; Batista, A. A. Cytotoxicity of Ru(II) Piano-
Stool Complexes with Chloroquine and Chelating Ligands against Breast and Lung Tumor Cells:
Interactions with DNA and BSA. J Inorg Biochem 2015, 153, 150–161.
Van Deun, R.; Van Hecke, K. Antitumor Activity of Organoruthenium Complexes with Chelate

T1 sequence (P02768 25-609): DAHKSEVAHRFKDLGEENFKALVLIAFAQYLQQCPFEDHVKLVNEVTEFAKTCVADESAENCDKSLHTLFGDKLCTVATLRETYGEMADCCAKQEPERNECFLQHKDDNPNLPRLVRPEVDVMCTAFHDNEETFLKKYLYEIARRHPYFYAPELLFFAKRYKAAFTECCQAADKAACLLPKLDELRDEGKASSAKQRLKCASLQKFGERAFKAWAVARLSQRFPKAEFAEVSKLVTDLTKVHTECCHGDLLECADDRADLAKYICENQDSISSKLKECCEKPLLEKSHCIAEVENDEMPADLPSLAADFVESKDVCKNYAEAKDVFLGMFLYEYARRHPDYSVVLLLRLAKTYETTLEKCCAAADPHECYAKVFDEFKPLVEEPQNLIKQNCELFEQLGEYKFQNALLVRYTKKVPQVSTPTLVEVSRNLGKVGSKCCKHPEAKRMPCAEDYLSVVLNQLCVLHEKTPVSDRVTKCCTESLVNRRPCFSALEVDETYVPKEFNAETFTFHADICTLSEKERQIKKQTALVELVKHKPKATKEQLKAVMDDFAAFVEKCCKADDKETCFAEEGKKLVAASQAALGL

In general, IC50 refers to the concentration needed to halve the response being measured. Higher therefore signals lower potency. Regarding `c1ccc(-c2ccnc3c2ccc2c(-c4ccccc4)ccnc23)cc1` [BP, 4,7-diphenyl-1,10-phenanthroline], in assay [1], the half-inhibitory concentration (IC50) is 0.59 to 0.76 µM.

In assay [1], `Clc1ccnc2c1ccc1c(Cl)ccnc12` [DCP, 4,7-dichloro-1,10-phenanthroline] had an IC50 of 3.8 to 5.1 µM.

`Cc1c(C)c(C)[c-](C)c1C.Clc1ccnc2c1ccc1c(Cl)ccnc12.[Cl-].[Cl-].[Rh+3]` [RhCp*DCP, [Rh(III)(η^5-C5Me5)(4,7-dichloro-1,10-phenanthroline)Cl]Cl] had an IC50 in assay [1] of 5.9 to 7.6 µM. Further, the “DG displacement / interaction with Sudlow’s site II” value (from here on “DG displacement / interaction”) in assay [2] is “no significant interaction”.

On to `Cc1ccc(C(C)C)cc1.[Cl-].[Cl-].[Ru+2].c1ccc(-c2ccnc3c2ccc2c(-c4ccccc4)ccnc23)cc1` [RuCymBP, [Ru(II)(η^6-p-cymene)(bathophenanthroline)Cl]Cl], for which the half-maximal inhibitory concentration (IC50) in assay [1] is 1.2 to 1.9 µM. Besides, the “DG displacement / interaction” value in assay [2] is recorded as “no significant interaction”.

`Cc1ccc(C(C)C)cc1.Clc1ccnc2c1ccc1c(Cl)ccnc12.[Cl-].[Cl-].[Ru+2]` [RuCymDCP, [Ru(II)(η^6-p-cymene)(4,7-dichloro-1,10-phenanthroline)Cl]Cl] came in with an IC50 in assay [1] of more than 75 µM. The “DG displacement / interaction” value in assay [2] is “no significant interaction”.

Turning to “[Rh(III)(η^5-C5Me5)(bathophenanthroline)Cl]Cl [RhCp*BP]”, the half-maximal inhibitory concentration (IC50) in assay [1] is 4.7 to 14.9 µM. Besides, in assay [2], the “DG displacement / interaction” value was “able to displace the DG”.
